Patent US11767310B2, “Nicotinamide RIPK1 inhibitors” (AbbVie Inc., priority 2021, dated 2023)
Read-outs that look alike come from different tables or passages of the source.

Key:
[1] = molecular target: p38-beta (Homo sapiens (Human), UniProt Q15759); experiment: Kinase binding screen; conditions: read-out: Percent Control at 100 nM Compound Concentration
[2] = molecular target: ABL1(T315I)-phosphorylated (Homo sapiens (Human), UniProt P00519, T315I); experiment: Kinase binding screen; conditions: read-out: Percent Control at 100 nM Compound Concentration
[3] = molecular target: CSNK1G1 (Homo sapiens (Human), UniProt Q9HCP0); experiment: Kinase binding screen; conditions: read-out: Percent Control at 100 nM Compound Concentration
[4] = molecular target: TRKC (Homo sapiens (Human), UniProt Q16288); experiment: Kinase binding screen; conditions: read-out: Percent Control at 100 nM Compound Concentration
[5] = molecular target: ACVR2B (Homo sapiens (Human), UniProt Q13705); experiment: Kinase binding screen; conditions: read-out: Percent Control at 100 nM Compound Concentration
Sequence of ACVR2B (Q13705 19-512): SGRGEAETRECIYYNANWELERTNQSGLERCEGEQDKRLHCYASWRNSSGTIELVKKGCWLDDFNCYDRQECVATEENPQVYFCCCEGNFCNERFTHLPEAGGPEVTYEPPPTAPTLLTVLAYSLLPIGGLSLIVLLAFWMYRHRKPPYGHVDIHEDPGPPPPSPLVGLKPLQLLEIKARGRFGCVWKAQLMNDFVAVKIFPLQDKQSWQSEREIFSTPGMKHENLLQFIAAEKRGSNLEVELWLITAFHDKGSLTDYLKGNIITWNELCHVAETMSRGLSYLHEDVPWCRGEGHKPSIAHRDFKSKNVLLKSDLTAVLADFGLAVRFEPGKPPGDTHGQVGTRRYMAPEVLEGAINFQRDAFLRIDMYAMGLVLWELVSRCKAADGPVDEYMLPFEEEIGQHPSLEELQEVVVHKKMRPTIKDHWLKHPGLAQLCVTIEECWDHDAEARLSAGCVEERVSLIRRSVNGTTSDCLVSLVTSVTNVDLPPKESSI

[6] = molecular target: NEK9 (Homo sapiens (Human), UniProt Q8TD19); experiment: Kinase binding screen; conditions: read-out: Percent Control at 100 nM Compound Concentration
[7] = molecular target: YANK3 (Homo sapiens (Human), UniProt Q86UX6); experiment: Kinase binding screen; conditions: read-out: Percent Control at 100 nM Compound Concentration
Sequence of YANK3 (Q86UX6 whole entry): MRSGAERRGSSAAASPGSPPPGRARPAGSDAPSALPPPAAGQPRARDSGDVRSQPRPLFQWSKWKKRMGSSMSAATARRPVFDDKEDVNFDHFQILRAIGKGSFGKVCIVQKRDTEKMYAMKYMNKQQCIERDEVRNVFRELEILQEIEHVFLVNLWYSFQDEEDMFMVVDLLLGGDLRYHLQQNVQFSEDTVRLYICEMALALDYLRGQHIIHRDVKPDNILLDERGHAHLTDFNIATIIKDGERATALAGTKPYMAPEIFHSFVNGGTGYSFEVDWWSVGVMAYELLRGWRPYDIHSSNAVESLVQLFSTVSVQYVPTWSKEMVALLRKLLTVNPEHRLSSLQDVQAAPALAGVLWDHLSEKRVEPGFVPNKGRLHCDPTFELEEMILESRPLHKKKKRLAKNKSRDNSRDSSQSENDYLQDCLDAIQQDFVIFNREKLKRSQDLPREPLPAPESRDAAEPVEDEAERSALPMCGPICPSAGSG

[8] = molecular target: PIKFYVE (Homo sapiens (Human), UniProt Q9Y2I7); experiment: Kinase binding screen; conditions: read-out: Percent Control at 100 nM Compound Concentration
[9] = molecular target: TRKB (Homo sapiens (Human), UniProt Q16620); experiment: Kinase binding screen; conditions: read-out: Percent Control at 100 nM Compound Concentration
[10] = system: non-mutant kinases; experiment: Selectivity score (S-score) from kinase binding screen; parameters: species or system human; conditions: Screening Concentration 100 nM; 403 non-mutant kinases
Experimental: Based on the binding affinities in Table D, a selectivity score (S-score) was calculated for each compound as a quantitative measure of compound selectivity. The S-score is calculated by dividing the number of kinases that a compound binds to by the total number of distinct kinases tested, excluding mutant variants. The selectivity score value can be calculated using % Ctrl as a potency threshold, as shown below, and provides a quantitative method of describing compound selectivity to facilitate comparison of different compounds.
S(10)=(number of non-mutant kinases with % Ctrl<[…])/(number of non-mutant kinases tested).
[…]=(number of non-mutant kinases with % Ctrl<[…])/(number of non-mutant kinases tested).
[…]=(number of non-mutant kinases with % Ctrl<1)/(number of non-mutant kinases tested).

[11] = molecular target: TNNI3K (Homo sapiens (Human), UniProt Q59H18); experiment: Kinase binding screen; conditions: read-out: Percent Control at 100 nM Compound Concentration
Sequence of TNNI3K (Q59H18 whole entry): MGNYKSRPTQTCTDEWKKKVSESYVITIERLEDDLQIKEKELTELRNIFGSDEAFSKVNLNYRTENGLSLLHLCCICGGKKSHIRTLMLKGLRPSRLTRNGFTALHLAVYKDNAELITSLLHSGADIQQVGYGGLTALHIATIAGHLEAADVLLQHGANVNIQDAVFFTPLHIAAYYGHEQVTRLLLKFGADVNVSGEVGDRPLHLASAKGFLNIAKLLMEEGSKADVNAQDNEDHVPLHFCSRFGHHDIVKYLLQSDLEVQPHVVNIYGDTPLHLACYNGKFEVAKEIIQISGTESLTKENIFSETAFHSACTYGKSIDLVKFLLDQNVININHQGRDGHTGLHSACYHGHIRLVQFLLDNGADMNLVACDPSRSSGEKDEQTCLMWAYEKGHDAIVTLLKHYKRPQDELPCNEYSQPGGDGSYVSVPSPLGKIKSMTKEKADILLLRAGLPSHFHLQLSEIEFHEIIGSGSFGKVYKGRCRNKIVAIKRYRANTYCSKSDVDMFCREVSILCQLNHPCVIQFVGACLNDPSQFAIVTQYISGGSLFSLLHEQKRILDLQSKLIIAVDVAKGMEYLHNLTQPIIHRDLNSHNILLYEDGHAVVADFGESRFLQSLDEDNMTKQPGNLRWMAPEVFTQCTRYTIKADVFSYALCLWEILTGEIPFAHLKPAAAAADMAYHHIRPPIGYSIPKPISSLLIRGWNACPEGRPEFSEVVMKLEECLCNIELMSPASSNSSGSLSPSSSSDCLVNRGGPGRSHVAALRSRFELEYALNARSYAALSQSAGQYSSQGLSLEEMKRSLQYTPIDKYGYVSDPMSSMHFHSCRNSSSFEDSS

[12] = molecular target: PRKG1 (Homo sapiens (Human), UniProt Q13976); experiment: Kinase binding screen; conditions: read-out: Percent Control at 100 nM Compound Concentration
Sequence of PRKG1 (Q13976 whole entry): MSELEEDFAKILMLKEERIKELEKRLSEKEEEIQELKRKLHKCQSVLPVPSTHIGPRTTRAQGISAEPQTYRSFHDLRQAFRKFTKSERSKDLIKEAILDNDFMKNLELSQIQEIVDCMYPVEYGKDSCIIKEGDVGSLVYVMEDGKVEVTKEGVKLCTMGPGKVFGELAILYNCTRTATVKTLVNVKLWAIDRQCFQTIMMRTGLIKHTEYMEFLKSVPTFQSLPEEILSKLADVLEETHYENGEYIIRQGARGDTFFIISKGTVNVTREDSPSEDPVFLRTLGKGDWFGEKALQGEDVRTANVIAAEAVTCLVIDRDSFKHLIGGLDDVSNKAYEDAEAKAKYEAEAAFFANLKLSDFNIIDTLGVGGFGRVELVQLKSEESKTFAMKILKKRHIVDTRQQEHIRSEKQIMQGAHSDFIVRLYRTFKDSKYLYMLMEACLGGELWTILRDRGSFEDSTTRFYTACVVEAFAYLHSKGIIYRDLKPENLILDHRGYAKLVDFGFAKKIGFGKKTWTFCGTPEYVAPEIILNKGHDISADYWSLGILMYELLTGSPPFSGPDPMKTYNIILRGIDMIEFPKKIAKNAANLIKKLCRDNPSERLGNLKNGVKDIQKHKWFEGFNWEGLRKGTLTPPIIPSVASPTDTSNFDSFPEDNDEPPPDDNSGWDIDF

[13] = molecular target: BTK (Homo sapiens (Human), UniProt Q06187); experiment: Kinase binding screen; conditions: read-out: Percent Control at 100 nM Compound Concentration
[14] = molecular target: MTOR (Homo sapiens (Human), UniProt P42345); experiment: Kinase binding screen; conditions: read-out: Percent Control at 100 nM Compound Concentration
[15] = molecular target: RIOK3 (Homo sapiens (Human), UniProt O14730); experiment: Kinase binding screen; conditions: read-out: Percent Control at 100 nM Compound Concentration
Sequence of RIOK3 (O14730 whole entry): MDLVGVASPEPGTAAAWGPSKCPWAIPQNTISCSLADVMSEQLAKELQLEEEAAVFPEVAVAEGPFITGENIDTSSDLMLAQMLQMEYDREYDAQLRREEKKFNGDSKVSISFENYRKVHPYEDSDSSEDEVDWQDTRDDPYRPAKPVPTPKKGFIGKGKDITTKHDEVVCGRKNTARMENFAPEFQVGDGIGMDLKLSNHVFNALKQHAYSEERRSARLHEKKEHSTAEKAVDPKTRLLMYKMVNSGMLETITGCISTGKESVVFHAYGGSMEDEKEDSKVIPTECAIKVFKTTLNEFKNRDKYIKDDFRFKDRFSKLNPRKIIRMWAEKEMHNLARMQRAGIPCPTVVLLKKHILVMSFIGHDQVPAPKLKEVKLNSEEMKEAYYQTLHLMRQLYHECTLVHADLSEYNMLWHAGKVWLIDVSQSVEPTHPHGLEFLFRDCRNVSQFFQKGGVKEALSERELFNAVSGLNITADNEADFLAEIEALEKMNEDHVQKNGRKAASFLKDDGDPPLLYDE

[16] = molecular target: YANK2 (Homo sapiens (Human), UniProt Q9NY57); experiment: Kinase binding screen; conditions: read-out: Percent Control at 100 nM Compound Concentration
[17] = molecular target: CSF1R (Homo sapiens (Human), UniProt P07333); experiment: Kinase binding screen; conditions: read-out: Percent Control at 100 nM Compound Concentration
Sequence of CSF1R (P07333 20-972): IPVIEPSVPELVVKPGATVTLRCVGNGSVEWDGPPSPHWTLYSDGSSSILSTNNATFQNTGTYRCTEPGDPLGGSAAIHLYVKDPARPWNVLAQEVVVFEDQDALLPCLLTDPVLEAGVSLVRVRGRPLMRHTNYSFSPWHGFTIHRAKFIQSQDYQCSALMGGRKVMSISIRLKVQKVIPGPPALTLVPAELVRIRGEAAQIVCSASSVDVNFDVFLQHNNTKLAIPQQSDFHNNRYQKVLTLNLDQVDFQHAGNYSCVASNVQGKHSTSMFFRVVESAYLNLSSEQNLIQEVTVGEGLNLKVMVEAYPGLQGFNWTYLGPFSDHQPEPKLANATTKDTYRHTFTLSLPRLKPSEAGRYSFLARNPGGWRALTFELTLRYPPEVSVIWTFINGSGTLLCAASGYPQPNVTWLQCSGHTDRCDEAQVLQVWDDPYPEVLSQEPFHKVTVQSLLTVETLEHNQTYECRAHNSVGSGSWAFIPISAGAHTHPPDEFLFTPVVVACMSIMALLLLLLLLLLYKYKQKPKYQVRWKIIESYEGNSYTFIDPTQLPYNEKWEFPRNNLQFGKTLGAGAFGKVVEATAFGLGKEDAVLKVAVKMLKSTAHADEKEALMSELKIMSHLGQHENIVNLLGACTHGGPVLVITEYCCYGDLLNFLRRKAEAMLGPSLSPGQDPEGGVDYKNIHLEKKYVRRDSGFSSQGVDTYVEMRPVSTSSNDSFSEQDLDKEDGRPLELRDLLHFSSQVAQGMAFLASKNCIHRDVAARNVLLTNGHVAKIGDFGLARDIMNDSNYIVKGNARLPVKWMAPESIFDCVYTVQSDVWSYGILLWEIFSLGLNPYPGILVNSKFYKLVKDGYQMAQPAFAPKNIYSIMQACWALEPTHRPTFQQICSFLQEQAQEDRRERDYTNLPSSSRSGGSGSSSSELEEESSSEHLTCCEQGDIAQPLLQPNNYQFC

[18] = molecular target: BRK (Homo sapiens (Human), UniProt Q13882); experiment: Kinase binding screen; conditions: read-out: Percent Control at 100 nM Compound Concentration
[19] = molecular target: CAMK2G (Homo sapiens (Human), UniProt Q13555); experiment: Kinase binding screen; conditions: read-out: Percent Control at 100 nM Compound Concentration
Sequence of CAMK2G (Q13555 whole entry): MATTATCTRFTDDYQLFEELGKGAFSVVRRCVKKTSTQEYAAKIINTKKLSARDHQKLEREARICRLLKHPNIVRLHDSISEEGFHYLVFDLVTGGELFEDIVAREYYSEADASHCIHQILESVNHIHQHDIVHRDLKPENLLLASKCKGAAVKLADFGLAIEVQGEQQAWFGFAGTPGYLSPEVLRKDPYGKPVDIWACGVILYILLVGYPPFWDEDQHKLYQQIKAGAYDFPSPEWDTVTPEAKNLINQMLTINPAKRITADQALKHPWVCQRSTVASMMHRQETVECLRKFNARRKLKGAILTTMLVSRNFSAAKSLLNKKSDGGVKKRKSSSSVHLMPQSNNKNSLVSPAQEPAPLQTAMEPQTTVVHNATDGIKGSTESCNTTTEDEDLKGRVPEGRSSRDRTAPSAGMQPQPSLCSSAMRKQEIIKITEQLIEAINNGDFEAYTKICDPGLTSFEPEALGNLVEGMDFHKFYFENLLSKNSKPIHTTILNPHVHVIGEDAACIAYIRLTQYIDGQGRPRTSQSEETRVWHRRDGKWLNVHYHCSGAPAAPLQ

[20] = molecular target: PIK3CA(E542K) (Homo sapiens (Human), UniProt P42336, E542K); experiment: Kinase binding screen; conditions: read-out: Percent Control at 100 nM Compound Concentration
[21] = molecular target: RSK4(Kin.Dom.2-C-terminal) (Homo sapiens (Human), UniProt Q9UK32); experiment: Kinase binding screen; conditions: read-out: Percent Control at 100 nM Compound Concentration
Sequence of RSK4(Kin.Dom.2-C-terminal) (Q9UK32 426-683): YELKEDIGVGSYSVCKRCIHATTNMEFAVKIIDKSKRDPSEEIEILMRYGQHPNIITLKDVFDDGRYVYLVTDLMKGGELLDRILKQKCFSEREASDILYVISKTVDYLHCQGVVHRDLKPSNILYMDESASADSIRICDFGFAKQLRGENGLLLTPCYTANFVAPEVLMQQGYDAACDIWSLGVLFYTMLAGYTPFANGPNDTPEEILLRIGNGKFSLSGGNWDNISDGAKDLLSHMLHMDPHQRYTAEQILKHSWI

[22] = molecular target: STK36 (Homo sapiens (Human), UniProt Q9NRP7); experiment: Kinase binding screen; conditions: read-out: Percent Control at 100 nM Compound Concentration
[23] = molecular target: FLT3(D835H) (Homo sapiens (Human), UniProt P36888, D835H); experiment: Kinase binding screen; conditions: read-out: Percent Control at 100 nM Compound Concentration
[24] = molecular target: FLT3(D835Y) (Homo sapiens (Human), UniProt P36888, D835Y); experiment: Kinase binding screen; conditions: read-out: Percent Control at 100 nM Compound Concentration
[25] = molecular target: ERK2 (Homo sapiens (Human), UniProt P28482); experiment: Kinase binding screen; conditions: read-out: Percent Control at 100 nM Compound Concentration

Question: Which results are given for `CN(C[C@@H](O)Cc1ccccc1)C(=O)c1cncc(C#Cc2cnn(C(F)F)c2)c1` [Example 2, (S)-5-((1-(difluoromethyl)-1H-pyrazol-4-yl)ethynyl)-N-(2-hydroxy-3-phenylpropyl)-N-methylnicotinamide]?
Answer: remaining activity at 0.1 µM ([1]; p38-beta): 100%; remaining activity at 0.1 µM ([2]; ABL1(T315I)-phosphorylated): 80%; remaining activity at 0.1 µM ([3]; CSNK1G1): 100%; remaining activity at 0.1 µM ([4]; TRKC): 100%; remaining activity at 0.1 µM ([5]; ACVR2B): 91%; remaining activity at 0.1 µM ([6]; NEK9): 100%; remaining activity at 0.1 µM ([7]; YANK3): 67%; remaining activity at 0.1 µM ([8]; PIKFYVE): 57%; remaining activity at 0.1 µM ([9]; TRKB): 100%; Number of Hits S(1) [10]: 0; Number of Hits S(10) [10]: 1; Number of Hits S(35) [10]: 3; Selectivity Score S(10) [10]: 0.002; Selectivity Score S(35) [10]: 0.007; remaining activity at 0.1 µM ([11]; TNNI3K): 100%; remaining activity at 0.1 µM ([12]; PRKG1): 92%; remaining activity at 0.1 µM ([13]; BTK): 100%; remaining activity at 0.1 µM ([14]; MTOR): 73%; remaining activity at 0.1 µM ([15]; RIOK3): 100%; remaining activity at 0.1 µM ([16]; YANK2): 100%; remaining activity at 0.1 µM ([17]; CSF1R): 100%; remaining activity at 0.1 µM ([18]; BRK): 100%; remaining activity at 0.1 µM ([19]; CAMK2G): 94%; remaining activity at 0.1 µM ([20]; PIK3CA(E542K)): 89%; remaining activity at 0.1 µM ([21]; RSK4(Kin.Dom.2-C-terminal)): 100%; remaining activity at 0.1 µM ([22]; STK36): 100%; remaining activity at 0.1 µM ([23]; FLT3(D835H)): 100%; remaining activity at 0.1 µM ([24]; FLT3(D835Y)): 100%; remaining activity at 0.1 µM ([25]; ERK2): 100%

Question: Which remaining activity at 0.1 µM [1] does the source give for `CN(C[C@H](Cc1ccccc1)OP(=O)(O)O)C(=O)c1cncc(C#Cc2cnn(C(F)F)c2)c1` [Example 19, (S)-1-(5-((1-(difluoromethyl)-1H-pyrazol-4-yl)ethynyl)-N-methylnicotinamido)-3-phenylpropan-2-yl dihydrogen phosphate] here?
Answer: 97%

Question: What about the remaining activity at 0.1 µM [2] of the same compound?
Answer: 92%

Question: What about the remaining activity at 0.1 µM [3] of the same compound?
Answer: 100%

Question: What about the remaining activity at 0.1 µM [4] of the same compound?
Answer: 68%

Question: What about the remaining activity at 0.1 µM [5] of the same compound?
Answer: 99%

Question: What about the remaining activity at 0.1 µM [6] of the same compound?
Answer: 100%

Question: What about the remaining activity at 0.1 µM [7] of the same compound?
Answer: 54%

Question: And the remaining activity at 0.1 µM [8]?
Answer: 57%

Question: And the remaining activity at 0.1 µM [9]?
Answer: 94%

Question: And the “Number of Hits S(1)” value [10]?
Answer: 0

Question: And the “Number of Hits S(10)” value [10]?
Answer: 0

Question: What about the “Number of Hits S(35)” value [10] of the same compound?
Answer: 0

Question: What about the remaining activity at 0.1 µM [11] of the same compound?
Answer: 100%

Question: And the remaining activity at 0.1 µM [12]?
Answer: 100%

Question: And the remaining activity at 0.1 µM [13]?
Answer: 96%

Question: And the remaining activity at 0.1 µM [14]?
Answer: 67%

Question: What about the remaining activity at 0.1 µM [15] of the same compound?
Answer: 100%

Question: What about the remaining activity at 0.1 µM [16] of the same compound?
Answer: 95%

Question: And the remaining activity at 0.1 µM [17]?
Answer: 100%

Question: And the remaining activity at 0.1 µM [18]?
Answer: 100%

Question: And the remaining activity at 0.1 µM [19]?
Answer: 100%

Question: What about the remaining activity at 0.1 µM [20] of the same compound?
Answer: 81%

Question: And the remaining activity at 0.1 µM [21]?
Answer: 100%

Question: What about the remaining activity at 0.1 µM [22] of the same compound?
Answer: 100%

Question: What about the remaining activity at 0.1 µM [23] of the same compound?
Answer: 100%

Question: What about the remaining activity at 0.1 µM [24] of the same compound?
Answer: 100%

Question: What about the remaining activity at 0.1 µM [25] of the same compound?
Answer: 100%
